Assay results from US6555580B2, “Amino- and amido-diphenyl ethers” (Bayer Aktiengesellschaft, priority 2000, dated 2003).

Test: T3 promoter assay cell test (luciferase reporter under thyroid hormone-regulated promoter)
Assay type: cell-based
Settings: Homo sapiens; HepG2 luciferase reporter with thyroid hormone-responsive element; costimulator retinoic acid; incubation 48 or 72 hours; four replicates
Description: The activity of the compounds according to the invention can be tested for example in vitro by the known T3 promoter assay cell test which is described below.
T3 Promoter Assay Cell Test
The test is carried out with a stably transfected human HepG2 hepatocarcinoma cell which expresses a luciferase gene under the control of a thyroid hormone-regulated promoter. The vector used for the transfection has upstream of the luciferase gene a minimal thymidine kinase promoter with a thyroid hormone-responsive element (TRE) which consists of two inverted palindromes each of 12 bp and of an 8 bp spacer.
For the test, the cell cultures are seeded in Eagle's minimal essential medium in 96-well plates with the following additions: glutamine, tricine, sodium pyruvate, nonessential amino acids, insulin, selenium and transferrin. The cultures are grown at 37° C. with a 10% CO2 atmosphere for 48 hours. In serial dilutions of test substance or reference compound (triiodothyronine=T3, thyroxine=T4) and costimulator retinoic acid are added to the test cultures and the latter are incubated as previously for a further 48 or 72 hours. Each substance concentration is tested in four replicates. To determine the luciferase induced by T3 or other substances, the cells are subsequently lysed by adding a Triton- and luciferin-containing buffer and measured immediately in a luminometer. The EC50 values for each compound are calculated (see Table 1).

EC50 [nM]	Compound
20	CCOC(=O)C(=O)Nc1cc(C)c(Oc2ccc(O)c(NC(=O)CCc3ccccc3)c2)c(C)c1 [Example 8, Ethyl (4-{4-hydroxy-3-[(3-phenylpropanoyl)amino]phenoxy}-3,5-dimethylanilino)(oxo)acetate]
2.4	CCCN(Cc1ccccc1)Cc1cc(Oc2c(C)cc(NC(=O)C(=O)OCC)cc2C)ccc1O [Example 29]
12	CCOC(=O)C(=O)Nc1cc(C)c(Oc2ccc(O)c(C(=O)NC(CC)c3ccccc3)c2)c(C)c1 (centres unmarked) [Example 260]

The remaining lines, values behind:

Compound	EC50 [nM]
CCOC(=O)C(=O)Nc1cc(C)c(Oc2ccc(O)c(C(=O)N(C)C3CCCCC3)c2)c(C)c1 [Example 16, Ethyl [4-(3-{[cyclohexyl(methyl)amino]carbonyl}-4-hydroxyphenoxy)-3,5-dimethylanilino](oxo)acetate]	28
CCOC(=O)C(=O)Nc1cc(C)c(Oc2ccc(O)c(CN(Cc3ccccc3)Cc3ccccc3)c2)c(C)c1 [Example 54]	6.7
CCCCCCCC(=O)N(Cc1cc(Oc2c(C)cc(NC(=O)C(=O)OCC)cc2C)ccc1O)c1ccc(F)cc1 [Example 122]	55
CCOC(=O)C(=O)Nc1cc(C)c(Oc2ccc(O)c(NC(=O)C(C)Oc3ccc(Cl)cc3C)c2)c(C)c1 (centres unmarked) [Example 190]	14
Cc1cc(N)cc(C)c1Oc1ccc(O)c(NC(=O)NC(C)c2ccccc2)c1 (centres unmarked) [Example 204]	61
